Organism: Rattus norvegicus
Assay: Open TG-GATES - Regimen: Daily Repeat
Type: toxicity, organism-based, Sprague-Dawley
Parameters: regimen Daily Repeat, gender Male, age 6 weeks
Settings: in vivo, po, route gavage; for APTT / Bas / Eos / Fbg / Hb / Ht / Lym / MCH / MCHC / Mono / Neu / Plat / RBC / Ret: tissue Blood; for KIDNEY_L / KIDNEY_R / KIDNEY_TOTAL: tissue Kidney; for LIVER: tissue Liver; for ALP / ALT / AST / BUN / CRE / Ca / Cl / DBIL / GLC / IP / K / LDH / Na / PL / RALB / TBIL / TC / TG / TP / gamma-GTP: tissue Plasma
[1] = 10 mg/kg, 72 h, dose level Middle, time 3 day
[2] = 10 mg/kg, […], dose level Middle, time 7 day
[3] = 10 mg/kg, […], dose level Middle, time 14 day
[4] = 10 mg/kg, […], dose level Middle, time 28 day
[5] = 30 mg/kg, 72 h, dose level High, time 3 day
[6] = 30 mg/kg, […], dose level High, time 7 day
[7] = 30 mg/kg, […], dose level High, time 14 day
[8] = 30 mg/kg, […], dose level High, time 28 day

Structure (SMILES): O=C(CCCN1CCC(O)(c2ccc(Cl)cc2)CC1)c1ccc(F)cc1 [HALOPERIDOL]
- TERMINAL_BW [1]: 211.5 g
- APTT [1]: 16 s
- Bas [1]: 0%
- Eos [1]: 0.6%
- Fbg [1]: 205.8 mg/dL
- Hb [1]: 14.8 g/dL
- Ht [1]: 44.6%
- Lym [1]: 81.4%
- MCH [1]: 21.3 pg
- MCHC [1]: 33.3%
- Mono [1]: 5.8%
- Neu [1]: 12.2%
- Plat [1]: 127.9 x10_4/uL
- RBC [1]: 695.4 x10_4/ul
- Ret [1]: 4.6%
- KIDNEY_L [1]: 0.9 g
- KIDNEY_R [1]: 0.9 g
- KIDNEY_TOTAL [1]: 1.8 g
- LIVER [1]: 10.3 g
- ALP [1]: 873.2 IU/L
- ALT [1]: 41 IU/L
- AST [1]: 64 IU/L
- BUN [1]: 22.2 mg/dL
- CRE [1]: 0.5 mg/dL
- Ca [1]: 11.3 mg/dL
- Cl [1]: 106.2 meq/L
- DBIL [1]: 0.002 mg/dL
- GLC [1]: 180 mg/dL
- IP [1]: 7.8 mg/dL
- K [1]: 4.7 meq/L
- LDH [1]: 95 IU/L
- Na [1]: 138.8 meq/L
- PL [1]: 177.8 mg/dL
- RALB [1]: 4.2 g/dL
- TBIL [1]: 0.2 mg/dL
- TC [1]: 78.2 mg/dL
- TG [1]: 156.2 mg/dL
- TP [1]: 6.2 g/dL
- gamma-GTP [1]: 1.2 IU/L
- TERMINAL_BW [2]: 234.1 g
- TERMINAL_BW [3]: 281.3 g
- TERMINAL_BW [4]: 341 g
- APTT [2]: 16.8 s
- Bas [2]: 0%
- Eos [2]: 0.4%
- Fbg [2]: 215.6 mg/dL
- Hb [2]: 15 g/dL
- Ht [2]: 44.6%
- Lym [2]: 75.4%
- MCH [2]: 21 pg
- MCHC [2]: 33.7%
- Mono [2]: 5%
- Neu [2]: 19.2%
- Plat [2]: 99.5 x10_4/uL
- RBC [2]: 717.6 x10_4/ul
- Ret [2]: 3.7%
- APTT [3]: 16.3 s
- Bas [3]: 0%
- Eos [3]: 0.2%
- Fbg [3]: 212.2 mg/dL
- Hb [3]: 14.7 g/dL
- Ht [3]: 43.9%
- Lym [3]: 75.6%
- MCH [3]: 20.3 pg
- MCHC [3]: 33.5%
- Mono [3]: 4.2%
- Neu [3]: 20%
- Plat [3]: 93.8 x10_4/uL
- RBC [3]: 722.2 x10_4/ul
- Ret [3]: 3.6%
- APTT [4]: 16 s
- Bas [4]: 0%
- Eos [4]: 0.4%
- Fbg [4]: 220.6 mg/dL
- Hb [4]: 15.3 g/dL
- Ht [4]: 45.8%
- Lym [4]: 78.8%
- MCH [4]: 19.5 pg
- MCHC [4]: 33.5%
- Mono [4]: 5.6%
- Neu [4]: 15.2%
- Plat [4]: 95.6 x10_4/uL
- RBC [4]: 788.6 x10_4/ul
- Ret [4]: 2.6%
- KIDNEY_L [2]: 1 g
- KIDNEY_R [2]: 1 g
- KIDNEY_TOTAL [2]: 1.9 g
- KIDNEY_L [3]: 1.1 g
- KIDNEY_R [3]: 1.1 g
- KIDNEY_TOTAL [3]: 2.2 g
- KIDNEY_L [4]: 1.2 g
- KIDNEY_R [4]: 1.2 g
- KIDNEY_TOTAL [4]: 2.4 g
- LIVER [2]: 10.8 g
- LIVER [3]: 12.3 g
- LIVER [4]: 13.4 g
- ALP [2]: 930.4 IU/L
- ALT [2]: 38.6 IU/L
- AST [2]: 66.8 IU/L
- BUN [2]: 20.2 mg/dL
- CRE [2]: 0.6 mg/dL
- Ca [2]: 11.4 mg/dL
- Cl [2]: 106.6 meq/L
- DBIL [2]: 0.004 mg/dL
- GLC [2]: 179.6 mg/dL
- IP [2]: 7.3 mg/dL
- K [2]: 4.6 meq/L
- LDH [2]: 84.8 IU/L
- Na [2]: 139 meq/L
- PL [2]: 174.4 mg/dL
- RALB [2]: 4 g/dL
- TBIL [2]: 0.3 mg/dL
- TC [2]: 84.8 mg/dL
- TG [2]: 123.8 mg/dL
- TP [2]: 6.2 g/dL
- gamma-GTP [2]: 1.8 IU/L
- ALP [3]: 773.8 IU/L
- ALT [3]: 29.2 IU/L
- AST [3]: 62.8 IU/L
- BUN [3]: 19.8 mg/dL
- CRE [3]: 0.4 mg/dL
- Ca [3]: 10.7 mg/dL
- Cl [3]: 107 meq/L
- DBIL [3]: 0.036 mg/dL
- GLC [3]: 184.2 mg/dL
- IP [3]: 7.8 mg/dL
- K [3]: 4.5 meq/L
- LDH [3]: 83.2 IU/L
- Na [3]: 138.4 meq/L
- PL [3]: 156 mg/dL
- RALB [3]: 4 g/dL
- TBIL [3]: 0.3 mg/dL
- TC [3]: 70.2 mg/dL
- TG [3]: 146 mg/dL
- TP [3]: 6.2 g/dL
- gamma-GTP [3]: 1.6 IU/L
- ALP [4]: 603.8 IU/L
- ALT [4]: 32.4 IU/L
- AST [4]: 66.8 IU/L
- BUN [4]: 20.4 mg/dL
- CRE [4]: 0.6 mg/dL
- Ca [4]: 10.7 mg/dL
- Cl [4]: 107.8 meq/L
- DBIL [4]: 0.062 mg/dL
- GLC [4]: 172.8 mg/dL
- IP [4]: 6.4 mg/dL
- K [4]: 4.7 meq/L
- LDH [4]: 72 IU/L
- Na [4]: 139.4 meq/L
- PL [4]: 141 mg/dL
- RALB [4]: 4.2 g/dL
- TBIL [4]: 0.3 mg/dL
- TC [4]: 63.6 mg/dL
- TG [4]: 133.4 mg/dL
- TP [4]: 6.7 g/dL
- gamma-GTP [4]: 1.6 IU/L
- TERMINAL_BW [5]: 179.6 g
- APTT [5]: 15.7 s
- Bas [5]: 0%
- Eos [5]: 1%
- Fbg [5]: 192.8 mg/dL
- Hb [5]: 15.9 g/dL
- Ht [5]: 47.3%
- Lym [5]: 83.4%
- MCH [5]: 21.2 pg
- MCHC [5]: 33.6%
- Mono [5]: 5%
- Neu [5]: 10.6%
- Plat [5]: 127.3 x10_4/uL
- RBC [5]: 751.8 x10_4/ul
- Ret [5]: 2.4%
- KIDNEY_L [5]: 0.8 g
- KIDNEY_R [5]: 0.9 g
- KIDNEY_TOTAL [5]: 1.7 g
- LIVER [5]: 7.7 g
- ALP [5]: 686.4 IU/L
- ALT [5]: 29.4 IU/L
- AST [5]: 62 IU/L
- BUN [5]: 28.2 mg/dL
- CRE [5]: 0.6 mg/dL
- Ca [5]: 11.2 mg/dL
- Cl [5]: 108.6 meq/L
- DBIL [5]: 0.002 mg/dL
- GLC [5]: 162.2 mg/dL
- IP [5]: 8.5 mg/dL
- K [5]: 4.7 meq/L
- LDH [5]: 176.8 IU/L
- Na [5]: 142.2 meq/L
- PL [5]: 159.6 mg/dL
- RALB [5]: 4.4 g/dL
- TBIL [5]: 0.2 mg/dL
- TC [5]: 88.2 mg/dL
- TG [5]: 80.8 mg/dL
- TP [5]: 6.2 g/dL
- gamma-GTP [5]: 1.2 IU/L
- TERMINAL_BW [6]: 213.8 g
- TERMINAL_BW [7]: 254.9 g
- TERMINAL_BW [8]: 329.7 g
- APTT [6]: 16.7 s
- Bas [6]: 0%
- Eos [6]: 0.4%
- Fbg [6]: 189.6 mg/dL
- Hb [6]: 15.4 g/dL
- Ht [6]: 46.2%
- Lym [6]: 82%
- MCH [6]: 21 pg
- MCHC [6]: 33.4%
- Mono [6]: 6.8%
- Neu [6]: 10.8%
- Plat [6]: 89.5 x10_4/uL
- RBC [6]: 735.6 x10_4/ul
- Ret [6]: 2.5%
- APTT [7]: 15.9 s
- Bas [7]: 0%
- Eos [7]: 0.4%
- Fbg [7]: 195.2 mg/dL
- Hb [7]: 15.4 g/dL
- Ht [7]: 46.4%
- Lym [7]: 84.6%
- MCH [7]: 20 pg
- MCHC [7]: 33.3%
- Mono [7]: 3.4%
- Neu [7]: 11.6%
- Plat [7]: 94.6 x10_4/uL
- RBC [7]: 773.4 x10_4/ul
- Ret [7]: 2.9%
- APTT [8]: 16.7 s
- Bas [8]: 0%
- Eos [8]: 0.6%
- Fbg [8]: 210.2 mg/dL
- Hb [8]: 15.2 g/dL
- Ht [8]: 45.1%
- Lym [8]: 84.4%
- MCH [8]: 19.4 pg
- MCHC [8]: 33.6%
- Mono [8]: 3.6%
- Neu [8]: 11.4%
- Plat [8]: 96.5 x10_4/uL
- RBC [8]: 782.8 x10_4/ul
- Ret [8]: 2.6%
- KIDNEY_L [6]: 0.9 g
- KIDNEY_R [6]: 0.9 g
- KIDNEY_TOTAL [6]: 1.8 g
- KIDNEY_L [7]: 1 g
- KIDNEY_R [7]: 1.1 g
- KIDNEY_TOTAL [7]: 2.1 g
- KIDNEY_L [8]: 1.2 g
- KIDNEY_R [8]: 1.2 g
- KIDNEY_TOTAL [8]: 2.4 g
- LIVER [6]: 10.3 g
- LIVER [7]: 10.8 g
- LIVER [8]: 12.8 g
- ALP [6]: 1009 IU/L
- ALT [6]: 38.8 IU/L
- AST [6]: 67.2 IU/L
- BUN [6]: 25.4 mg/dL
- CRE [6]: 0.5 mg/dL
- Ca [6]: 11.8 mg/dL
- Cl [6]: 106 meq/L
- DBIL [6]: 0.008 mg/dL
- GLC [6]: 164.2 mg/dL
- IP [6]: 7.6 mg/dL
- K [6]: 4.6 meq/L
- LDH [6]: 154.4 IU/L
- Na [6]: 140 meq/L
- PL [6]: 175.6 mg/dL
- RALB [6]: 4.1 g/dL
- TBIL [6]: 0.2 mg/dL
- TC [6]: 77.6 mg/dL
- TG [6]: 113.6 mg/dL
- TP [6]: 6.1 g/dL
- gamma-GTP [6]: 1.6 IU/L
- ALP [7]: 689.4 IU/L
- ALT [7]: 30.2 IU/L
- AST [7]: 65 IU/L
- BUN [7]: 24 mg/dL
- CRE [7]: 0.5 mg/dL
- Ca [7]: 11 mg/dL
- Cl [7]: 105.6 meq/L
- DBIL [7]: 0.012 mg/dL
- GLC [7]: 179.4 mg/dL
- IP [7]: 7.8 mg/dL
- K [7]: 4.7 meq/L
- LDH [7]: 178.6 IU/L
- Na [7]: 138.8 meq/L
- PL [7]: 162.4 mg/dL
- RALB [7]: 3.9 g/dL
- TBIL [7]: 0.3 mg/dL
- TC [7]: 76.2 mg/dL
- TG [7]: 107.4 mg/dL
- TP [7]: 6.1 g/dL
- gamma-GTP [7]: 1.2 IU/L
- ALP [8]: 528.8 IU/L
- ALT [8]: 31.6 IU/L
- AST [8]: 65.4 IU/L
- BUN [8]: 25.6 mg/dL
- CRE [8]: 0.5 mg/dL
- Ca [8]: 11.1 mg/dL
- Cl [8]: 107 meq/L
- DBIL [8]: 0.076 mg/dL
- GLC [8]: 177.8 mg/dL
- IP [8]: 7.6 mg/dL
- K [8]: 4.7 meq/L
- LDH [8]: 138.6 IU/L
- Na [8]: 140.2 meq/L
- PL [8]: 148.6 mg/dL
- RALB [8]: 3.9 g/dL
- TBIL [8]: 0.2 mg/dL
- TC [8]: 67 mg/dL
- TG [8]: 136.8 mg/dL
- TP [8]: 6.3 g/dL
- gamma-GTP [8]: 2.2 IU/L

Reference: ChEMBL document CHEMBL3885861, “Open TG-GATES”
